Entries after “also recorded” stand apart in the source; their conditions may differ.
Experiments:
Peptide P11 = test: Anti-P11 ELISA on sera of mice immunised with P11-BSA; type: in vivo; settings: P11 coupled to BSA, 25 μg in SBAS2 IM, 8 female BALB/c mice, days 0, 14, 28
Protocol: FIG. 5, Antibody response anti-P11. Peptide P11 is coated at 1 μg/ml in carbonate buffer at +4° C. overnight. After saturation of plates, two-fold serial dilution of sera are added and incubated for 1 h at 37° C. Bound IgG is detected with a biotinylated anti-mouse Ab followed by streptavidin-POD and TMB substrate. Time points measured A. days 14 post vaccination 1, and day 14 post v2; B, Day 14 post v3.
(§1) The anti-peptide and anti-carrier immune responses were investigated using an ELISA technique outlined below. Microtiterplates (Nunc) are coated with the specific antigen in PBS (4° overnight) with either: Streptavidin at 2 μg/ml (followed by incubation with biotinylated peptide (1 μM) for 1 hour at 37° C.), Wash 3× PBS-Tween 20 0.1%. Saturate plates with PBS-BSA 1%-Tween 20 0.1% (Sat buffer) for 1 hr at 37°. Add 1° antibody=sera in two-step dilution (in Sat buffer), incubate 1 hr 30 minutes at 37°. Wash 3×. Add 2° anti-mouse Ig (or anti-mouse isotype specific monoclonal antibody) coupled to HRP. Incubate 1 hr at 37°. Wash 5×. Reveal with TMB (BioRad) for 10 minutes at room temperature in the dark. Block reaction with 0.4N H2SO4.
25 μg of conjugate formulated in SBAS2 was injected IM into 8 female BALB/c mice at days 0, 14 and 28. […] Anti-peptide and anti-IgE antibodies raised by vaccination were measured by ELISA, as described in Example 1.

human IgE = test: IgE plate bound ELISA: anti-human IgE reactivity in serum of immunised mice; type: in vivo, mouse
P14 peptide = test: Anti-peptide ELISA on sera of mice immunised with P14 conjugates; type: in vivo, BalbC mice; settings: mice vaccinated with P14 conjugate
Protocol: as §1
The conjugates comprising the mimotope P14 (25 μg protein/dose), described in example 1, were administered into groups of 10 BalbC mice, adjuvanted with and oil in water emulsion containing QS21 and 3D-MPL described in WO 95/17210. Boosting was be performed on days 14, 24 and 72, sera was harvested 14 days after each immunisation. The immune responses anti-peptide and anti-plate bound IgE was followed using ELISA methods described in Example 1. The antiserum was then tested for anaphylactogenicity and functional activity in the inhibition of histamine release from human allergic basophils (methods as described in example 1).

allergic human basophils = test: Human basophil assay, blocking assay (inhibition of allergen-triggered histamine release); type: cell-based; settings: mouse antiserum; allergic human basophils triggered with allergen
Text: Samples of cells were lysed by 2× freeze/thawing to assay total histamine contained in the cells.
The degree of inhibition of histamine release can be calculated using the formula: […]
(histamine release from antigen stimulated cells*)
Values corrected for spontaneous release.

## CRASGKPVNHSTRKEEKQRNGLL (Human peptide sequence) [Peptide P11]
Peptide P11
  IgG anti-P11 response: detected already after one injection, but increased further after the second and third injection
Human IgE; as expressed in mAb005 equivalents, all mice, after a third injection of P11 coupled to BSA
  anti-IgE response: 28 to 244 µg/mL

## APEWPGSRDKRTC (Human peptide sequence) [Peptide P14]
P14 peptide
  induction of anti-P14 immune response: capable of raising high titres
Allergic human basophils
  inhibition of histamine release by antiserum/antibodies raised by vaccination: potent in the inhibition of histamine release; also recorded: inhibited histamine release
Human IgE; mice vaccinated with P14 conjugate
  induction of anti-IgE immune response: capable of raising high titres
